Consider one compound from patent US20060134131A1, “Cosmetic or pharmaceutical composition comprising a genus halopteris brown alga extract” (priority 2002, published 2006).

In this assay the test system is pre-adipocytes 3T3-L1. The experiment in a line: Differentiation of 3T3-L1 pre-adipocytes into adipocytes, lipid content by Oil Red colouring. Type of assay: cell-based. The note with it: Mus musculus, 3T3-L1, retinoic acid 10 μM. The procedure:
The study on the effect of this extract on a line of pre-adipocytes ET3-L1 induced as adipocytes is carried out according to a protocol which is known and which is in particular described in the document which appeared in Annu. Rev. Biochem., 1995, 64: 345-373, entitled “Transcriptional regulation of gene expression during adipocyte differentiation”, the authors of which were MacDougald O A and Lane M D.
This protocol is set out briefly below. The pre-adipocyte cells of the line e=3T3-L1 were kept in culture in a Dulbelcco modified Eagle medium (DMEM) containing 2 mM of glutamine, 4.5 g/l of glucose, 0.11 g/l of sodium pyruvate, 10% of calf serum (SVD) and antibiotics (50 U penicillin and 50 μg of streptomycin per ml of medium). Their differentiation as adipocytes was brought about in the following manner: firstly, the pre-adipocyte cells were cultivated with confluence for two days. At the time which will be referred to below as D0, the culture medium was replaced by a differentiation inducing medium (DIM) composed of DMEM containing 10% foetal calf serum (FCS) with the addition of 0.25 mM of isobutyl methyl xanthine (IBMX), 0.25 μM of dexamethasone and 1.74 μM of insulin. After two days of incubation, and therefore at time D2, the induction medium was delicately withdrawn and replaced by a new culture medium containing 10% of FCS and 0.174 μM of insulin. Next the culture medium was renewed every two days.
After seven days of culture, the lipid content of the pre-adipocyte cells was assessed by colouring with Oil Red. More precisely, the pre-adipocyte cells were fixed to 3.7% formaldehyde and then incubated for ten minutes with a Oil Red colorant solution (0.5% in an isopropanol/water mixture). After 10 minutes, the cellular carpet was rinsed with water and the pre-adipocyte cells were lysed with pure isopropanol. The optical density (OD) of the medium was measured at 540 nm.
The extract of the brown alga Halopteris scoparia was tested on 3T3-L1 cells during the induction phase by means of the DIM, which therefore commenced at day D0.
In the first experimental series, this extract was added from the very start of the differentiation (at time D0) and kept present in the medium until the cells were fixed (at time D7), by renewal every two days (that is to say at time D2 and D4). The extract was tested at the following three concentrations: 0.4%, 1% and 2.5%. In the same way, use was made of a sample of 10 μM retinoic acid, which is known for inhibiting the differentiation of pre-adipocytes into adipocytes, as is in particular described in the article which appeared in Differentiation, 1990, 45:119-127, entitled “The molecular basis for inhibition of adipose conversion of 3T3-L1 cells by retinoic acid”, the authors of which were Stone R L and Berlnohr D A. […]

Like-named read-outs stand apart in the source and are kept apart here.

For orientation: inhibition means the share of the control response that was lost under treatment. With `CC1=C(/C=C/C(C)=C/C=C/C(C)=C/C(=O)O)C(C)(C)CCC1` [Retinoic Acid, retinoic acid], the inhibition at 10 µM is, setting by setting: (first experimental series, five manipulations, read-out: % inhibition of the differentiation) 82 ± 21%; (presence from D0 to D2, read-out: % inhibition of differentiation) 40 ± 5%; (presence from D0 to D7, second series, read-out: % inhibition of differentiation) 51 ± 3%; (presence from D2 to D7, read-out: % inhibition of differentiation) 3 ± 2%.
